Reference: patent US12187758B2 (ROME Therapeutics, Inc., priority 2022, dated 2025)
pIC50: −log10 of the molar value.

Tests used:
Format in all cases: cell-based
PC3 cells = test: Mitochondria toxicity assay with PC3 cells, cytotoxicity (Cell Titer Glo); conditions: Homo sapiens, PC-3, 120 h, 5 days treatment
Protocol: (§1) PC3 cells were purchased from ATCC and cultured in F-12 Kaighn's modified medium (Hyclone), 10% heat-inactivated fetal bovine serum (Invitrogen), 1% Penicillin-Streptomycin (Invitrogen). PC3 cells were treated with a dose titration of a test compound on 96 well plates for 5 days at 37° C., 5% CO2 in a humidified incubator. The treatment plates are duplicated, one for in-cell ELISA for mitochondria proteins and one for cytotoxicity.
For the cytotoxicity assay, the medium from the cell viability plate was removed, 50 μL per well of Cell Titer Glo (Promega, G9683) was added. Then the cells incubated for 30 minutes at room temperature. Luminescence was read by Envision (PerkinElmer 2105).
(§2) In the table “A” represents values<1.0 μM; “B” represents values from >1.0 μM to ≤10.0 μM; “C” represents values from >10.0 μM to ≤50.0 μM; “D” represents values from >50.0 μM to ≤100.0 μM; and “E” represents values>100.0 μM.

[1] = system: SDH-A (succinate dehydrogenase-A); test: Mitochondria toxicity assay with PC3 cells, in-cell ELISA SDH-A; conditions: 5 days treatment
Protocol: (§3) Exemplary compounds were tested for inhibition of expression of mitochondria DNA encoded proteins COX-1 […]. SDH-A (succinate dehydrogenase-A) is a control mitochondria protein encoded by nuclear DNA. Reduction in COX-1 expression indicates off target inhibition of mitochondria DNA synthesis which leads to mitochondrial toxicity. Assay procedures and results are described below.
as §1
(§4) In-cell ELISA was performed to measure mitochondrial proteins using MitoBiogenesis In-Cell ELISA kit (Abcam) per manufacturer's instruction. The medium was aspirated from the compound treated cells, 100 μl per well of 4% paraformaldehyde (Solarbio) was added and cells were incubated at room temperature for 20 minutes. The cells were washed three times with PBS. 100 μl of 0.5% acetic acid was added per cell, and the cells were incubate at room temperature for 5 minutes. Cells were washed once with PBS. 100 μl per well of Permeabilization Buffer was added, and the cells incubate at room temperature for 30 minutes. The permeabilization buffer was removed and 200 μl per well 2× Blocking Buffer was added and the cells were incubated at room temperature for 2 hours. After removing the Blocking Buffer 100 μl per well of primary antibody to SDH-A or COX-1 was added, and the cells were incubated at 4° C. overnight. The primary antibody solution was removed and cells were washed 3 times with the Wash Buffer. 100 μl per well of AP- and HRP-labelled secondary antibodies was added, and the cells were incubated at room temperature for 1 hour. The cells were then washed 4 times with the Wash Buffer. For SDH-A detection, 100 μl per well AP Development Solution was added, and the cells were incubated at room temperature for 10 minutes. Cells were then read on CLARTO star^plus microplate reader (BMG Labtech) for kinetic readings at 405 nm for 5 minutes. […] The cells were then read on CLARTO star^plus microplate reader (BMG Labtech) for kinetic readings at 600 nm for 15 minutes.
as §2

[2] = Mitochondria toxicity assay with PC3 cells, in-cell ELISA COX-1; conditions: 5 days treatment
Protocol: as §3, §1, §4, §2

THP1-Dual KO-TREX1 cells = test: THP1 TREX1 KO inhibition assay (type 1 interferon response); conditions: Homo sapiens, 144 h, type 1 interferon (QUANTI-LUC), 1 μM 5-aza-2′-deoxycytidine, six days
Protocol: Exemplary compounds were tested for their ability to alter the type 1 interferon response in THP1 Dual TREX1 KG cells treated with 5-aza-2′-deoxycytidine. Assay procedures and results are described below.
THP1 Dual TREX1 KG cells were purchased from Invivogen. The THP1-Dual™ KO-TREX1 cells were cultured in RPMI 1640, 10% heat-inactivated fetal bovine serum, 25 mM HEPES, 10 μg/mL blasticidin, and 100 μg/mL zeocin. THP1-Dual™ KO-TREX1 cells were treated with a dose titration of a test compound alone or in the presence of 1 μM 5-aza-2′-deoxycytidine (Sigma-Aldrich, cat #189825). Type 1 Interferon and cell viability were assessed after six days of treatment.
Stock solution of the test compound was prepared in DMSO followed by a three-fold dilution in DMSO. Additional 50× dilution was prepared in cell culture media for each dilution. 10 μL of diluted test compound was then added to a 96-well plate.
THP1-Dual™ KO-TREX1 cells were treated with either 1×PBS or 1 μM 5-aza-2′-deoxycytidine. […] of the THP1-Dual™ KO-TREX1 cells from either treatment were added to each well of the 96-well plate containing the test compound titration at 50,000 cells/well. Cells were incubated at 37° C., 5% CO2 in a humidified incubator for six days. Cells treated with 1 μM 5-aza-2′-deoxycytidine were added at the same density as above and incubated at 37° C., 5% CO2 in a humidified incubator for six days. On day six, 25 μL of cell supernatant was transferred to a 96-well white-walled plate, followed by addition to each well of 50 μL of QUANTI-LUC solution containing stabilizer. Luminescence was detected on a plate reader according to the manufacturer's instructions.
The remaining cells were assessed for cell viability by adding 25 μL of CellTiter-Glo (Promega, G9683) solution to each well, and being placed on a shaker for 10 minutes at room temperature. Luminescence was detected on a plate reader, according to the manufacturer's instructions.
In the tables “A” represents values≤0.050 μM; “B” represents values from >0.050 μM to ≤0.100 μM; “C” represents values from >0.100 μM to ≤0.250 μM; “D” represents values from >0.250 μM to ≤1 μM; “E” represents values>1 μM; and “NT”=not tested: […]

pIC50 (THP1-Dual KO-TREX1 cells)	Compound	pIC50 (PC3 cells)	pIC50 [1]	pIC50 [2]
6.00 to 6.60	C#C[C@]1(CO)O[C@@H](n2ccc(N)nc2=O)[C@@H](F)[C@@H]1O [Compound 35, 4-amino-1-((2R,3S,4R,5R)-5-ethynyl-3-fluoro-4-hydroxy-5-(hydroxymethyl)tetrahydrofuran-2-yl)pyrimidin-2(1H)-one]	> 6.00	< 4.00	> 6.00
< 6.00	C#C[C@]1(CO)O[C@@H](c2ccc3c(N)ncnn23)C[C@@H]1O [Compound 37, (2R,3S,5R)-5-(4-aminopyrrolo[2,1-f][1,2,4]triazin-7-yl)-2-ethyny1-2-(hydroxymethyl)tetrahydro-furan-3-ol]	4.30 to 5.00	5.00 to 6.00	5.00 to 6.00
< 6.00	C#C[C@]1(CO)O[C@@H](n2cc(C)c(=O)[nH]c2=O)C[C@@H]1O [Compound 38, 1-((2R,4S,5R)-5-ethynyl-4-hydroxy-5-(hydroxymethyl)tetrahydrofuran-2-yl)-5-methylpyrimidine-2,4(1H,3H)-dione]	< 4.00	< 4.00	< 4.00
< 6.00	C#C[C@]1(CO)O[C@@H](n2cc(C)c(=O)[nH]c2=O)[C@@H](F)[C@@H]1O [Compound 39, 1-((2R,3S,4R,5R)-5-ethynyl-3-fluoro-4-hydroxy-5-(hydroxymethyl)tetrahydrofuran-2-yl)-5-methylpyrimidine-2,4(1H,3H)-dione]	< 4.00	< 4.00	< 4.00
< 6.00	C#C[C@]1(CO)O[C@@H](n2cnc3c(N)nc(F)nc32)[C@@H](F)[C@@H]1O [Compound 42, (2R,3R,4S,5R)-5-(6-amino-2-fluoro-9H-purin-9-yl)-2-ethynyl-4-fluoro-2-(hydroxymethyl)tetrahydro-furan-3-ol]	4.00 to 4.30	4.30 to 5.00	4.30 to 5.00
< 6.00	C=C[C@]1(CO)O[C@@H](n2ccc(N)nc2=O)C[C@@H]1O [Compound 43, 4-amino-1-((2R,4S,5R)-4-hydroxy-5-(hydroxymethyl)-5-vinyltetrahydrofuran-2-yl)pyrimidin-2(1H)-one]	< 4.00	5.00 to 6.00	5.00 to 6.00
< 6.00	Nc1ccn([C@H]2C[C@H](O)[C@](CO)(CF)O2)c(=O)n1 [Compound 45, 4-amino-1-((2R,4S,5R)-5-(fluoromethyl)-4-hydroxy-5-(hydroxymethyl)tetrahydro-furan-2-yl)pyrimidin-2(1H)-one]	5.00 to 6.00	> 6.00	> 6.00
< 6.00	Nc1nc2c(ncn2[C@H]2C[C@H](O)[C@](CO)(CF)O2)c(=O)[nH]1 [Compound 46, 2-amino-9-((2R,4S,5R)-5-(fluoromethyl)-4-hydroxy-5-(hydroxymethyl)tetrahydro-furan-2-yl)-1,9-dihydro-6H-purin-6-one]	5.00 to 6.00	5.00 to 6.00	5.00 to 6.00
< 6.00	C=C[C@]1(CO)O[C@@H](n2ccc(N)nc2=O)[C@@H](F)[C@@H]1O [Compound 47, 4-amino-1-((2R,3S,4R,5R)-3-fluoro-4-hydroxy-5-(hydroxymethyl)-5-vinyltetrahydrofuran-2-yl)pyrimidin-2(1H)-one]	5.00 to 6.00	5.00 to 6.00	5.00 to 6.00
6.00 to 6.60	[N-]=[N+]=N[C@]1(CO)O[C@@H](n2ccc(N)nc2=O)[C@@H](F)[C@@H]1O [Compound 50, 4-amino-1-((2R,3S,4R,5R)-5-azido-3-fluoro-4-hydroxy-5-(hydroxymethyl)tetrahydrofuran-2-yl)pyrimidin-2(1H)-one]	> 6.00	> 6.00	> 6.00
< 6.00	CC[C@]1(COC(=O)C(C)C)O[C@@H](n2ccc(N)nc2=O)C[C@@H]1OC(=O)C(C)C [Compound 52, [(2R,3S,5R)-5-(4-amino-2-oxopyrimidin-1-yl)-2-ethyl-3-[(2-methylpropanoyl)oxy]oxolan-2-yl] methyl 2-methylpropanoate]	< 4.00	< 4.00	< 4.00
< 6.00	C=C[C@]1(COC(=O)C(C)C)O[C@@H](n2ccc(N)nc2=O)C[C@@H]1OC(=O)C(C)C [Compound 53, [(2R,3S,5R)-5-(4-amino-2-oxopyrimidin-1-yl)-2-ethenyl-3-[(2-methylpropanoyl)oxy]oxolan-2-yl] methyl 2-methylpropanoate]	< 4.00	< 4.00	< 4.00
< 6.00	CC(C)[C@]1(CO)O[C@@H](n2ccc(N)nc2=O)C[C@@H]1O [Compound 55, 4-amino-1-[(2R,4S,5R)-4-hydroxy-5-(hydroxymethyl)-5-isopropyloxolan-2-yl] pyrimidin-2-one]	< 4.00	< 4.00	< 4.00
< 6.00	C=CCC1(CO)O[C@@H](n2ccc(N)nc2=O)C[C@@H]1O (stereo partly drawn) [Compound 56, 1-((2R,4S)-5-allyl-4-hydroxy-5-(hydroxymethyl)tetrahydrofuran-2-yl)-4-aminopyrimidin-2(1H)-one]	< 4.00	< 4.00	< 4.00
< 6.00	CCCC1(CO)O[C@@H](n2ccc(N)nc2=O)C[C@@H]1O (stereo partly drawn) [Compound 57, 4-amino-1-((2R,4S,5R)-4-hydroxy-5-(hydroxymethyl)-5-propyltetrahydrofuran-2-yl)pyrimidin-2(1H)-one]	< 4.00	< 4.00	< 4.00
< 6.00	CC(C)C(=O)OC[C@@]1(CCl)O[C@@H](n2cc(F)c(N)nc2=O)C[C@@H]1OC(=O)C(C)C [Compound 58]	< 4.00	< 4.00	4.30 to 5.00
< 6.00	CCC[C@]1(CO)O[C@@H](n2ccc(N)nc2=O)C[C@@H]1O [Compound 60, 4-amino-1-((2R,4S,5R)-4-hydroxy-5-(hydroxymethyl)-5-propyltetrahydrofuran-2-yl)pyrimidin-2(1H)-one]	< 4.00	< 4.00	< 4.00
< 6.00	Nc1ccn([C@H]2C[C@H](O)[C@](CO)(CC(F)(F)F)O2)c(=O)n1 [Compound 62, 4-amino-1-[(2R,4S,5R)-4-hydroxy-5-(hydroxymethyl)-5-(2,2,2-trifluoroethyl)oxolan-2-yl] pyrimidin-2-one]	4.30 to 5.00	4.30 to 5.00	4.30 to 5.00
